{
  "source": "patent US20110118347A1",
  "about": "“TREATMENT Of RINGWORM” (Vernolix Limited, priority 2008, published 2011)",
  "key": {"T. tonsurans": {"system": "T. tonsurans", "assay": "Screen for activity against fungal lawns of T. tonsurans", "assay_type": "cell-based, Trichophyton tonsurans"}, "[1]": {"assay": "Penetration of compounds of Formula I into mammalian skin (living pig skin)", "assay_type": "in vitro ADME", "settings": "5% by wt in lanolin-based cream, applied to outer surface of living pig skin, after one hour", "from_the_text": "The formulation may be applied to the outer surface of a section of living pig skin."}},
  "data": [
    {"compound": "CCCCCC(O)C(O)CC=CCCCCCCCC(=O)O", "note": "(centres unmarked) [Compound (iv), 12,13-dihydroxyoctadec-9-enoic acid]", "values": [
      {"measurement": "fungicidal activity against fungal lawns of T. tonsurans", "setting": "T. tonsurans", "result": "effective fungicidal activity"},
      {"measurement": "penetration of the active compounds into the dermis and epidermis", "setting": "[1]", "result": "a significant amount of compounds (i) and (iv) has penetrated the dermis"}
    ]}
  ]
}
